Experimental data reported in patent publication US20060206946A1, “Method of disrupting heme transport in nematodes and of modelling and evaluating eukaryotic heme transport” (priority 2005, published 2006).

Legend:
[1] = test system: C. elegans wild-type N2 strain; assay: Worm culture and growth assay in axenic CeHR/mCeHR liquid medium; assay type: in vivo; design: key to Growth 1.6 μM hemin / Growth 0.5 μM GaPP: + = wild type equivalent In growth; ND: No growth
Procedure: (D) Biphasic response of C. elegans cultured in the presence of increasing amounts of hemin chloride (μM). Equal numbers of synchronized L1 larvae were grown in 24-well plates in mCeHR medium for 9 days and quantified (worms/μl) by microscopy. Each data point represents the mean±SD from three separate experiments performed in triplicate.
(A) Aerobic growth of C. elegans in mCeFIR medium with 20 μM hemin supplemented with either gallium protoporphyrin IX (GaPP) or gallium salts. Synchronized L1 larvae were grown for 9 days in 24-well plates and quantified (worms/μl) by microscopy. Each data point represents the mean from a single experiment, and each experiment was performed in triplicate. Inset depicts the GaPP analysis at lower concentrations for clarity.
(B) Effect of heme on the cytotoxicity of GaPP. Synchronized L1 larvae were inoculated in 24-well plates containing mCeHR medium with either 0, 2, 4, or 6 μM GaPP and increasing hemin (μM). The number of worms per μl was measured on day 9 and the data are presented as mean±SD.
FIG. 9 depicts worm utilization of heme-iron under iron deprivation. Equal numbers of synchronized L1 larvae were grown in the presence of 4, 20, and 100 μM hemin, either in basal mCeHR medium (set 1), or basal medium lacking exogenous iron (set 2), or as set 2 with 1 μM of the iron chelator ferrozine (set 3), or as set 3 with 486 μM ferrous ammonium sulfate (set 4). These values of ferrozine and iron were empirically determined by performing dose-response experiments and analyzing worm growth. The number of worms per μl was measured on day 9 and the data presented as mean±SD performed in triplicate. P<0.001 between sets 1 and 3.
To qualitatively and quantitatively determine the heme requirement of C. elegans, we assessed growth at various heme concentrations. Equal numbers of L1 larvae were inoculated in CeHR medium with either no cytochrome c and hemin, or with cytochrome c and increasing amounts of hemin (FIG. 4A). The effect of hemin became apparent within 48 hours and by 9 days, the heme-deplete worms were severely growth retarded at the L1/L2 stages. […] However, this stimulatory effect of heme was toxic to worms grown at heme concentrations >750 μM. To quantitatively assess the effect of heme on worms, we counted the number of live worms grown under different concentration of heme using DIC microscopy. […] On the basis of this association between heme and the growth and reproduction of C. elegans, we conclude that the biphasic nature of heme is likely due to the need for heme under heme-deprived conditions to perform essential metabolic functions, and the lethality of heme at high concentrations can be attributed to its cytotoxic activity.
(§1) Worm Culture and Growth Assays. Free-living worms were cultured in CeHR axenic liquid medium (Dr. Eric Clegg, Personal Communication). […] CeHR medium was modified (henceforth called mCeHR) to eliminate all sources of exogenously added heme; basal growth medium comprised 20 μM hemin chloride (Frontier Scientific, Logan, Utah) and 150 μM of ferrous ammonium sulfate (Sigma Chemicals). Worm strains were grown in mCeHR medium under aerobic conditions in tissue culture flasks at 20° C. ˜3.7×10^6 worms were routinely obtained after 3.5 to 4 days in a T75 flask with 30 ml basal medium from an initial inoculum of −1.5×10^5 worms. For initial culturing of worms in axenic media, three generations of worms were sequentially bleached (1.1% bleach/0.55 M NaOH) to eliminate any contaminating bacterial carryover from agar plates. In all dose-response experiments, worms were growth synchronized by treating the gravid hermaphrodite worms with bleach to dissolve adult worms. The eggs, resistant to bleach, were liberated from the carcasses and extensively washed with M9 buffer followed by overnight hatching in M9 buffer to synchronize growth. By harvesting at appropriate time intervals, synchronous larval stages and adult staged worms were collected for experimental manipulations. […]

C. elegans mutant IH828 = assay: Growth of heme resistant mutant in CeHR medium; assay type: in vivo, Caenorhabditis elegans; conditions: in vivo
Procedure: (§2) To further increase the stringency of our genetic screen we split the contents from each 800 μM hemin selection flasks into two flasks containing either 800 μM or 1000 μM hemin. This allowed us to use another tier of positive selection to identify mutants with greater resistance to heme toxicity. Mutants from each flask were isolated and treated as a separate entity by giving an identification number based on the Genetic Nomenclature Guidelines used for C. elegans (http://biosci.umn.edu/CGC/Nomenclature/nomenguid.htm). To eliminate EMS-induced spurious mutations that could result in false positive, the mutants were outcrossed to wild-type N2 males. After five outcrosses, which replaces ˜97% of the mutant genome, mutants that bred true were selected for further analysis. Using this procedure, we isolated 13 individual mutants that were resistant to heme toxicity. These mutants were further characterized by analyzing Mendelian segregation ratios, X-linkage, phenotype penetrance, generation times, brood size, and their ability to grow under low hemin. […] This observation was surprising because we anticipated that high heme-resistant mutants will grow poorly under low heme. Based on the mutant's growth profile at low and high heme levels, we broadly categorized them into three phenotypic classes: class A, class B and class C (FIG. 13). These “phenoclusters” have the following growth phenotype: (a) three mutants IH728, IH938, IH731 show with robust growth under low and high (≧800 μM heme (FIG. 13B), (b) one mutant IH828 show exceptional growth under low heme, moderate growth at ≦800 μM heme, and no growth at 1000 μM hemin (FIG. 13C), and (c) six mutants IH921, IH11058, IH1068n, IH1068d, IH1048, and IH718 that show moderate growth under high heme (≦800 μM), but normal growth under low heme (FIG. 13D). By classifying these mutants into phenoclusters, we can focus our efforts on the phenotypic datasets to map the molecular networks and pathways involved in heme dependent processes. For instance, mutants in a cluster may have mutations within the same gene or in multiple genes but within the same pathway.
as §1, with “manipulations. Identical numbers of synchronized L1 larvae were inoculated into media with different heme concentrations in 12- or 24-well culture plates. Worm growth was monitored each day and an aliquot was obtained for counting by microscopy usually at days 3, 6, and 9. The worms in each well were counted twice and each growth condition was analyzed in triplicate. P values for statistical significance were calculated utilizing a one-way ANOVA with Student-Newman-Keuls multiple comparison test using GraphPad Instat version 3.01.” for “manipulations.”

C. elegans mutant IH1048 = assay: Growth of heme resistant mutant in CeHR medium; assay type: in vivo, Caenorhabditis elegans; design: key to Growth 1.6 μM hemin / Growth 0.5 μM GaPP: + = wild type equivalent In growth; ND: No growth
Procedure: as §2
as §1, with “manipulations. Identical numbers of synchronized L1 larvae were inoculated into media with different heme concentrations in 12- or 24-well culture plates. Worm growth was monitored each day and an aliquot was obtained for counting by microscopy usually at days 3, 6, and 9. The worms in each well were counted twice and each growth condition was analyzed in triplicate. P values for statistical significance were calculated utilizing a one-way ANOVA with Student-Newman-Keuls multiple comparison test using GraphPad Instat version 3.01.” for “manipulations.”

[2] = test system: C. elegans mutant IH1068 d; assay: Growth of heme resistant mutant in CeHR medium; assay type: in vivo, Caenorhabditis elegans; design: key to Growth 1.6 μM hemin / Growth 0.5 μM GaPP: + = wild type equivalent In growth; ND: No growth
Procedure: as §2
as §1, with “manipulations. Identical numbers of synchronized L1 larvae were inoculated into media with different heme concentrations in 12- or 24-well culture plates. Worm growth was monitored each day and an aliquot was obtained for counting by microscopy usually at days 3, 6, and 9. The worms in each well were counted twice and each growth condition was analyzed in triplicate. P values for statistical significance were calculated utilizing a one-way ANOVA with Student-Newman-Keuls multiple comparison test using GraphPad Instat version 3.01.” for “manipulations.”

[3] = test system: C. elegans mutant IH1068 n; assay: Growth of heme resistant mutant in CeHR medium; assay type: in vivo, Caenorhabditis elegans; design: key to Growth 1.6 μM hemin / Growth 0.5 μM GaPP: + = wild type equivalent In growth; ND: No growth
Procedure: as §2
as §1, with “manipulations. Identical numbers of synchronized L1 larvae were inoculated into media with different heme concentrations in 12- or 24-well culture plates. Worm growth was monitored each day and an aliquot was obtained for counting by microscopy usually at days 3, 6, and 9. The worms in each well were counted twice and each growth condition was analyzed in triplicate. P values for statistical significance were calculated utilizing a one-way ANOVA with Student-Newman-Keuls multiple comparison test using GraphPad Instat version 3.01.” for “manipulations.”

C. elegans mutant IH718 = assay: Growth of heme resistant mutant in CeHR medium; assay type: in vivo, Caenorhabditis elegans; design: key: + = wild type equivalent In growth; ND: No growth
Procedure: To further increase the stringency of our genetic screen we split the contents from each 800 μM hemin selection flasks into two flasks containing either 800 μM or 1000 μM hemin. This allowed us to use another tier of positive selection to identify mutants with greater resistance to heme toxicity. Mutants from each flask were isolated and treated as a separate entity by giving an identification number based on the Genetic Nomenclature Guidelines used for C. elegans (http://biosci.umn.edu/CGC/Nomenclature/nomenguid.htm). To eliminate EMS-induced spurious mutations that could result in false positive, the mutants were outcrossed to wild-type N2 males. After five outcrosses, which replaces ˜97% of the mutant genome, mutants that bred true were selected for further analysis. Using this procedure, we isolated 13 individual mutants that were resistant to heme toxicity. […]
Worm Culture and Growth Assays. […] Worm growth was monitored each day and an aliquot was obtained for counting by microscopy usually at days 3, 6, and 9. The worms in each well were counted twice and each growth condition was analyzed in triplicate. P values for statistical significance were calculated utilizing a one-way ANOVA with Student-Newman-Keuls multiple comparison test using GraphPad Instat version 3.01. […]

C=CC1=C(C)C2=[N+]3C1=Cc1c(C)c(C=C)c4[n]1[Ga-]31[n]3c(c(C)c(CCC(=O)O)c3=CC3=[N+]1C(=C4)C(C)=C3CCC(=O)O)=C2 (centres unmarked) [GaPP, gallium protoporphyrin IX]
toxic effect of GaPP in the presence of increasing levels of hemin ([1]; 0, 2, 4 or 6 μM GaPP, day 9): attenuated | toxicity rank among six non-iron metalloporphyrins tested ([1]; 4 μM hemin): most toxic heme analog | Growth 0.5 μM GaPP ([1]; Control Wild-type (N2)): + | sensitivity compared to hemin ([1]; F1 progeny): 3,200 fold | GaPP concentration at which worms were growth arrested ([1]; F1 progeny of surviving P0 worms grown at lower GaPP): 0.25 µM | toxicity relative to hemin ([1]; P0 and F1 animals): 800-3000 times | sensitivity compared to hemin ([1]; P0 worms): 800 fold | GaPP concentration at which worms were growth retarded ([1]; P0 worms, medium with hemin): 1 µM | sensitivity of worms to GaPPIX compared to heme ([1]; in vivo): 30 times | resistance of IH828 to GaPP toxicity (C. elegans mutant IH828): extremely resistant | Growth 0.5 μM GaPP (C. elegans mutant IH1048): + | Growth 0.5 μM GaPP [2]: + | Growth 0.5 μM GaPP [3]: + | Growth 0.5 μM GaPP (C. elegans mutant IH718): +
